From patent US20020143059A1, “Skin care product containing retinoids, retinoid booster and phytoestrogens in a dual compartment package” (priority 2000, published 2002)
Values belong to the molecule of their own block, whether it stands above or below them.

How the values were obtained:
[1] = test system: retinoic acid oxidation (cytochrome P450 systems); assay: Assay for NADPH Dependent Retinoic Acid Oxidation, liver microsomes; type: biochemical, rat; conditions: for % Inhibition Retinoic Acid (100 μM): 100 μM compound; for % Inhibition Retinoic Acid (10 μM): 10 μM compound
[2] = Retinol stability in the presence of boosters (OD 360 nm); type: physicochemical; conditions: booster approximately 0.1%, 60 hours at room temperature in the dark, approx. 50% aqueous ethanol
Description: Retinol (50% in tween 80) was dissolved in approximately 50% aqueous ethanol to provide a solution giving an OD at 360 nm of approximately 0.6 when measured in a 200 μl volume in a 96 well plate using a standard 96 well spectrophotometer.
Booster molecules were added at approximately 0.1% concentration and the OD 360 measured as above immediately and after 60 hours at room temperature in the dark. A correction was applied to the OD after 60 hours (divide by 0.85) to account for increased concentration of the retinol due to evaporation of solvent from the plate.

TGase I = assay: Transglutaminase (TGase I ELISA) assay in cultured keratinocytes; type: cell-based; conditions: booster in combination with a constant retinol concentration of 10^−7M; read-out: Overall TG (IC 50)
LRAT = molecular target: T1, LRAT (Bos taurus, UniProt Q9BGL2); assay: Assay for LRAT activity, RPE microsomes; type: biochemical, bovine; conditions: for % Inhibition LRAT (10 μm): 10 μm compound; for % Inhibition LRAT (100 μm): 100 μm compound
T1 construct: followed by approximately 15 μg of RPE microsomal protein; tissue W. L. Lawson Co., Lincoln, Nebr; host or cells: bovine retinal pigment epithelium microsomes
T1 sequence (Q9BGL2 1-230): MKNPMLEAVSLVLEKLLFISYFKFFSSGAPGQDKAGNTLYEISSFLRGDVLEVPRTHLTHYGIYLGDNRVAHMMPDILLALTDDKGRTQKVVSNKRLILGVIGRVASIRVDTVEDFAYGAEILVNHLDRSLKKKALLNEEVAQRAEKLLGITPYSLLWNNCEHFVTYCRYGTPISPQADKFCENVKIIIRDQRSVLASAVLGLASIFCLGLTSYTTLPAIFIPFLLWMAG

ARAT = assay: Assay for ARAT activity, RPE microsomes; type: biochemical, bovine; conditions: for % Inhibition ARAT (10 μm): 10 μm compound; for % Inhibition ARAT (100 μm): 100 μm compound

% Inhibition Retinoic Acid (100 μM) [1]: 47%
Compound: CC(C)(C(=O)c1cccnc1)c1cccnc1 [2-Methyl-1,2-di-3-Pyridyl-1-Propane]

Compound: Oc1cccc2cccnc12 [8 OH QUINOLINE]
FOLD INCREASE IN RATE OF RETINOL LOSS [2]: 1.5 fold

IC50 (TGase I): 0.859 µM
Compound: O=c1c2cccc3cccc(c32)c2nc3ccccc3n12 [(7H-Benzimidazo[2,1-a]Benz[de]-Isoquinolin-7-one]

IC50 (TGase I): 6.78 µM
% Inhibition LRAT (10 μm) (LRAT): 10% +/− 10
% Inhibition LRAT (100 μm) (LRAT): 50% +/− 18
Compound: CCCCCCCCCCCCC/C=C/[C@@H](O)[C@H](CO)NC(C)=O [Acetyl Sphingosine]
% Inhibition ARAT (10 μm) (ARAT): 19% +/− 12
% Inhibition ARAT (100 μm) (ARAT): 62% +/− 11

IC50 (TGase I): 335 µM
% Inhibition LRAT (10 μm) (LRAT): 87% +/− 6
% Inhibition LRAT (100 μm) (LRAT): 98% +/− 1
Compound: C/C=C\C(=O)C1C(C)=CCCC1(C)C (stereo not drawn) [Alpha-Damascone]

% Inhibition LRAT (100 μm) (LRAT): 77%
Compound: CCC(=O)/C=C/C1C(C)=CCCC1(C)C (stereo not drawn) [Alpha-Methyl Ionone]
% Inhibition ARAT (100 μm) (ARAT): 67%

Compound: CC(=O)/C=C/C1C(C)=CCCC1(C)C (stereo not drawn) [Alpha=Ionone]
IC50 (TGase I): 927 µM
FOLD INCREASE IN RATE OF RETINOL LOSS [2]: 1.3 fold

% Inhibition LRAT (10 μm) (LRAT): 52%
% Inhibition LRAT (100 μm) (LRAT): 92%
Compound: C/C=C/C(=O)C1=C(C)CCCC1(C)C [Beta-Damascone]

% Inhibition Retinoic Acid (10 μM) [1]: 89%
% Inhibition Retinoic Acid (100 μM) [1]: 100%
Compound: c1ccc(-c2ccc(C(c3ccccc3)n3ccnc3)cc2)cc1 (stereo not drawn) [Bifonazole]

% Inhibition LRAT (100 μm) (LRAT): 75%
Compound: CC1=CCC(CCC(C)CO)C1(C)C (stereo not drawn) [Brahmanol]
% Inhibition ARAT (100 μm) (ARAT): 70%

FOLD INCREASE IN RATE OF RETINOL LOSS [2]: 1.4 fold
Compound: O=c1ccc2ccccc2o1 [COUMARIN]

FOLD INCREASE IN RATE OF RETINOL LOSS [2]: 3.1 fold
Compound: CC(C)=CCCC(C)=CC=O [Citral]
% Inhibition ARAT (100 μm) (ARAT): 20%

Compound: CC(C)=CCCC(C)CCO (stereo not drawn) [Citronellol]
% Inhibition ARAT (100 μm) (ARAT): 30%

% Inhibition Retinoic Acid (10 μM) [1]: 80%
% Inhibition Retinoic Acid (100 μM) [1]: 92%
Compound: CC(C)(C)C(=O)C(Oc1ccc(Cl)cc1)n1ccnc1 (stereo not drawn) [Climbazole]

% Inhibition Retinoic Acid (10 μM) [1]: 76%
Compound: Clc1ccccc1C(c1ccccc1)(c1ccccc1)n1ccnc1 [Clotrimazole]

Compound: CC(/C=C/C=C(\C)C(=O)O)=C\C=C\C=C(C)\C=C\C=C(/C)C(=O)O [Crocetin]
% Inhibition ARAT (10 μm) (ARAT): 15%
% Inhibition ARAT (100 μm) (ARAT): 34%

% Inhibition LRAT (10 μm) (LRAT): 29%
% Inhibition LRAT (100 μm) (LRAT): 79%
Compound: C/C=C/C(=O)C1=C(C)C=CCC1(C)C [Damascenone]

% Inhibition LRAT (10 μm) (LRAT): 64%
% Inhibition LRAT (100 μm) (LRAT): 95%
Compound: C/C=C/C(=O)C1C(C)C=CCC1(C)C (stereo not drawn) [Delta-Damascone]

Compound: CC(=O)CCC1C(C)=CCCC1(C)C (stereo not drawn) [Dihydro Alpha-Ionone]
% Inhibition LRAT (100 μm) (LRAT): 18%
% Inhibition ARAT (100 μm) (ARAT): 13%

% Inhibition LRAT (10 μm) (LRAT): 0%
% Inhibition LRAT (100 μm) (LRAT): 17% +/− 17
Compound: CCCCCCCC(=O)OC[C@H](COP(=O)(O)OCCN)OC(=O)CCCCCCC [Dioctylphosphatidyl Ethanolamine]
% Inhibition ARAT (10 μm) (ARAT): 23%

% Inhibition Retinoic Acid (10 μM) [1]: 88%
% Inhibition Retinoic Acid (100 μM) [1]: 100%
Compound: Clc1ccc(COC(Cn2ccnc2)c2ccc(Cl)cc2Cl)cc1 (stereo not drawn) [Econazole]

% Inhibition LRAT (100 μm) (LRAT): 49%
Compound: CCOC(=O)C1=C(C)C=CCC1(C)C [Ethyl Saffranate]

Compound: CC(C)=CCCC(C)=CCCC(C)=CCO [Farnesol]
% Inhibition ARAT (10 μm) (ARAT): 23% +/− 18
% Inhibition ARAT (100 μm) (ARAT): 53% +/− 18

Compound: CC12CCC(C1)C(C)(C)C2O (stereo not drawn) [Fenchyl Alcohol]
% Inhibition ARAT (100 μm) (ARAT): 12%

% Inhibition LRAT (100 μm) (LRAT): 38%
Compound: CC(=O)/C(C)=C/C1C(C)=CCCC1(C)C (stereo not drawn) [Gamma-Methyl Ionone]

FOLD INCREASE IN RATE OF RETINOL LOSS [2]: 1.3 fold
Compound: CC(C)=CCC/C(C)=C/CO [Geraniol]
% Inhibition ARAT (10 μm) (ARAT): 13%
% Inhibition ARAT (100 μm) (ARAT): 32%

Compound: CC(C)=CCC/C(C)=C/CC/C(C)=C/CC/C(C)=C/CO [Geranyl Geraniol]
% Inhibition ARAT (10 μm) (ARAT): 38% +/− 12
% Inhibition ARAT (100 μm) (ARAT): 81% +/− 6

Compound: CCCCCC(N)=O [Hexanoamide]
% Inhibition ARAT (100 μm) (ARAT): 20%

IC50 (TGase I): 99.9 µM
% Inhibition LRAT (100 μm) (LRAT): 37% +/− 9
Compound: CCCCCCCCCCCCC/C=C/[C@@H](O)[C@H](CO)NC(=O)CCCCC [Hexanoyl Sphingosine]

IC50 (TGase I): 32.9 µM
% Inhibition LRAT (100 μm) (LRAT): 35%
Compound: CCCCCCCCCCC(O)C(=O)NCCO (stereo not drawn) [Hydroxyethyl-2-Hydroxy-C12 Amide]

% Inhibition LRAT (100 μm) (LRAT): 16%
Compound: CC1=CC(C)C(CO)C(C)C1 (stereo not drawn) [Isocyclogeraniol]
% Inhibition ARAT (100 μm) (ARAT): 18%

% Inhibition LRAT (100 μm) (LRAT): 92%
Compound: CC=CC(=O)C1CCC(C)(C)C=C1C (stereo not drawn) [Isodamascone]
% Inhibition ARAT (100 μm) (ARAT): 80%
